Where two headings read alike, the source gives them in different places.

The subject of one experiment is EA.hy926. The experiment in a line: MTT cytotoxicity test. The experiment is classed as cell-based, human. A general note: Tetrazolium assays rely on reduction of a dye to a coloured formazan, in cell work by metabolically active cells.
The next experiment has as its system EJ. The experiment in a line: MTT cytotoxicity test. The format is cell-based, human. The conditions noted are these: 72 h exposure.
The next experiment concerns HEK-293. The experiment in a line: MTT cytotoxicity test. The experiment is classed as cell-based, human.
For experiment [1], the system named is HL-60. The experiment in a line: MTT cytotoxicity test. The conditions noted are these: HL-60, 72 h exposure. The experiment is classed as cell-based, human.
Experiment [2] has as its system K-562. The experiment in a line: MTT cytotoxicity test. The format is cell-based, human.
Experiment [3] deals with MDA-MB-231. The experiment in a line: MTT cytotoxicity test. The following applies: MDA-MB-231, 72 h exposure. The format is cell-based, human.
The subject of experiment [4] is human tumor (MDA-MB-231, EJ, K-562, HL-60 and HL-60/DOX) cell lines. The experiment in a line: MTT cytotoxicity test, tumor cell line panel. The format is cell-based. From the text:
(§1) The group of human cell lines used in this study were represented by the tumor cell lines MDA-MB (breast carcinoma), EJ (urinary bladder carcinoma), K-562 (chronic myeloid leukemia), HL-60 (acute pre-myeloid leukemia), HL-60/DOX (multi-drug resistant HL-60 cell line, with over expression of MRP-1) and the non-tumorigenic cell lines HEK-293 (embryonic kidney cells) and EA.hy926 (vascular endothelial cells). EJ, HL60 and EA.hy926 were purchased from American Type Culture Collection (ATCC) (Manassas, Virginia). The other cell lines were purchased from the German Collection of Microorganisms and Cell Cultures (DSMZ GmbH, Braunschweig, Germany). HL-60/DOX cell lines were generated by periodically treating HL-60 cells with anthracyclins. The conditions in which the cell culture flasks were maintained were as follows: 37 °C in an incubator “BB 16-Function Line” Heraeus (Kendro, Hanau, Germany) with 5% CO2 humidified atmosphere. The growth medium was 90% RPMI-1640, supplemented with 10% FBS and 2 mM L-glutamine. MDA-MB-231, EJ, HEK-293 and EA.hy926 cells were maintained as adherent monolayer cultures while all the other (leukemic) cell lines were grown as suspension type cultures. Cells were maintained in log phase: the adherent cell lines were subjected to trypsinization 1–2 times a week and the leukemic cell lines were passaged 2–3 times a week by removing of part of the cellular suspension and substituting it with fresh medium.
The evaluation of cytotoxic activity was conducted by MTT test as described previously. The median inhibitory concentration (IC50) values which represent the half-maximal concentration values were calculated from sigmoidal concentration–response curves, using non-linear regression analysis (Curve fit, GraphPad Prizm 5.0 software, GraphPad Software Inc., San Diego, CA, USA). The selectivity index was calculated as the ratio of the IC50 of a non-cancerous line (HEK-293 or EA.hy926) and the average IC50 of all chemosensitive tested tumor cell lines (x). Therefore, SI=IC50HEK-293/IC50x . The resistance index (RI) was calculated as the ratio of IC50 of the multi-drug resistant HL-60/DOX cell line and the IC50 of its parent cell line: RI=IC50HL-60/DOX/IC50HL-60 .

In experiment [5] the test system is HL-60. The experiment in a line: Antiproliferative test (NCI methodology). The experiment is classed as cell-based, human. The conditions noted are these: for GI50: HL-60, MTT readout; for TGI: HL-60, total growth inhibition.
From the text: as §1
(§2) The test was performed according the methodology of National Cancer Institute (NCI), USA [116]. Briefly, cells were seeded into 96-well plates in the same way as for an MTT test and after 24 h, the absorption of one plate of each cell line was measured as in the MTT assay described above, to represent a measurement of the cell population at the time of drug-addition (Tz). The rest of the plates were treated with the tested compounds and the experiment for them continued as the MTT-method. Using the absorbance measurements [(Tz, untreated control growth (C) and test growth in the present of the compounds (Ti)], the percentage growth is calculated at each of the tested concentrations of the compounds. Percentage growth inhibition (GI) is calculated as GI%=Ti−Tz/C−Tz×100 for concentrations for which Ti ≥ Tz. For concentrations in which Ti < Tz it is calculated as GI%=Ti−Tz/Tz×100 . Two dose parameters are calculated for each experimental agent. Growth inhibition of 50% (GI50) is calculated from Ti−Tz/C−Tz×100=50 . This is the drug concentration resulting in a 50% reduction in the net protein increase (as measured by MTT-test) in control cells during the drug incubation. The drug concentration resulting in total growth inhibition (TGI) is calculated from Ti = Tz.

Experiment [6] concerns K-562. The experiment in a line: Antiproliferative test (NCI methodology). The experiment is classed as cell-based, human. The conditions noted are these: for GI50: K-562, MTT readout; for TGI: K-562, total growth inhibition.
From the text: as §1, §2

Experiment [7] relates to MDA-MB-231. The experiment in a line: Antiproliferative test (NCI methodology). The format is cell-based, human. The conditions noted are these: for GI50: MDA-MB-231, MTT readout; for TGI: MDA-MB-231, total growth inhibition.
From the text: as §1, §2

The subject of a further experiment is SKW-3. Further details: method as in PMID 26411018. The following applies: human leukemia cell line SKW-3, dissolved in DMSO; cited from earlier work.
The mark [8] stands for this setting: Homo sapiens, EA.hy 926, EA.hy926, 72 h exposure.
Where [9] appears, read: Homo sapiens, HEK293, HEK-293, 72 h exposure.
Where [10] appears, read: Homo sapiens, K562, K-562, 72 h exposure.
The mark [11] stands for this setting: Homo sapiens, average IC50 of all chemo-sensitive tested tumor cell lines, read-out: x.

Regarding `CC(C)=CCC[C@]1(C)[C@@H](CC=C(C)C)C[C@H]2C(=O)[C@]1(C(=O)C(C)C)C(=O)C(CC=C(C)C)=C2O` [Compound 5, (1S,5R,7S,8R)-4-hydroxy-1-isobutyryl-8-methyl-3,7-bis(3-methylbut-2-en-1-yl)-8-(4-methylpent-3-en-1-yl)bicyclo[3.3.1]non-3-ene-2,9-dione], the IC50 in the experiment on EA.hy926 (setting [8]) turned out to be 9.43 ± 2 µM; in the experiment with EJ (Homo sapiens) it was 1.21 ± 0.3 µM; in the experiment on HEK-293 (setting [9]), 0.89 ± 0.1 µM; in the experiment on HL-60 [1] (Homo sapiens), 1.16 ± 0.1 µM; with K-562 [2] (setting [10]) it was 1.58 ± 0.1 µM; in the experiment with MDA-MB-231 [3] (Homo sapiens), 1.31 ± 0.2 µM. For the same molecule, the IC50 in experiment [4] (setting [11]) is 1.32 µM; in [4] (Homo sapiens, tumor cell lines, MTT assay, read-out: IC50 (range over the tumor cell lines)), 1.16 to 1.71 µM.
Usually GI50 stands for the concentration at which growth is held to half of that of the control. Higher therefore signals lower sensitivity of the cells. A word on the TGI: it is the concentration giving total growth inhibition. Regarding “(1R,5R,7S,8R)-4-hydroxy-5,8-dimethyl-3,7-bis(3-methylbut-2-en-1-yl)-1-(2-methylbutanoyl)-8-(4-methylpent-3-en-1-yl)bicyclo[3.3.1]non-3-ene-2,9-dione [Compound 4]”, the IC50 in the experiment on EA.hy926 (EA.hy926, 72 h exposure) worked out at 5.34 ± 1.9 µM; in the experiment with EJ, 8.06 ± 1.7 µM; with HEK-293 (HEK-293, 72 h exposure), 35.8 ± 4.4 µM; in the experiment with HL-60 [1], 22.2 ± 3.4 µM; with K-562 [2] (K-562, 72 h exposure) it was 17.2 ± 3 µM; in the experiment on MDA-MB-231 [3] it was 12.5 ± 2.1 µM. The IC50 in experiment [4] (average IC50 of all chemo-sensitive tested tumor cell lines, read-out: x) is 15 µM. For the same molecule, the concentration for 50% growth inhibition (GI50) in the experiment with HL-60 [5] is 41.1 µM; with K-562 [6], 16 µM; in the experiment with MDA-MB-231 [7], 0.52 µM. The figures for the TGI in the experiment with HL-60 [5], in the experiment on K-562 [6] and in the experiment on MDA-MB-231 [7] were 55.55 µM, 18.38 µM and 0.81 µM, respectively.
Regarding `CC(C)=CCC[C@]1(C)[C@@H](CC=C(C)C)C[C@]2(C)C(=O)C(CC=C(C)C)=C(O)[C@@]1(C(=O)C(C)C)C2=O` [Compound 3, hyperpolyphyllirin/hyperibine J], the IC50 in the experiment with EA.hy926 (setting [8]) was found to be 19.9 ± 3.1 µM; with EJ (Homo sapiens) it was 8.02 ± 1.6 µM; with HEK-293 (setting [9]), 10.7 ± 2.1 µM; in the experiment on HL-60 [1] (Homo sapiens), 10.9 ± 1.9 µM; in the experiment on K-562 [2] (setting [10]) it was 3.17 ± 0.3 µM; in the experiment with MDA-MB-231 [3] (Homo sapiens), 2.63 ± 0.3 µM. Besides, the figures for the IC50 (in experiment [4] (setting [11]); with SKW-3) were 6.18 µM and 5.3 µM, respectively. In addition, the TGI with HL-60 [5] came out at 47.43 µM; in the experiment on K-562 [6] it was 0.77 µM; in the experiment on MDA-MB-231 [7], 2.96 µM. In addition, the 50% growth inhibitory concentration (GI50) in the experiment on HL-60 [5] (Homo sapiens) is 41.1 µM; in the experiment on K-562 [6] (Homo sapiens, K562), 0.44 µM; in the experiment on MDA-MB-231 [7] (Homo sapiens) it was 1.93 µM.

These data come from PMC10097024, “Cytotoxic and Antibacterial Prenylated Acylphloroglucinols from Hypericum olympicum L” (Plants, 2023).
